This note sets out measurements from ChEMBL document CHEMBL1144812, “Small molecules with structural similarities to siderophores as novel antimicrobials against Mycobacterium tuberculosis and Yersinia pestis” (Bioorg Med Chem Lett, 2008).

In data set [1] the test system is Yersinia pestis. The experiment in a line: Ratio of MIC90 for Yersinia pestis KIM6-2082.1+ in iron rich PMH-D medium to MIC90 for Yersinia pestis KIM6-2082.1+ in presence of iron limiting PMH-D medium. It is filed as functional.
Data set [2] addresses T1, AMP-binding enzyme family protein (Yersinia pestis, UniProt Q56950).
T1 sequence (Q56950 whole entry): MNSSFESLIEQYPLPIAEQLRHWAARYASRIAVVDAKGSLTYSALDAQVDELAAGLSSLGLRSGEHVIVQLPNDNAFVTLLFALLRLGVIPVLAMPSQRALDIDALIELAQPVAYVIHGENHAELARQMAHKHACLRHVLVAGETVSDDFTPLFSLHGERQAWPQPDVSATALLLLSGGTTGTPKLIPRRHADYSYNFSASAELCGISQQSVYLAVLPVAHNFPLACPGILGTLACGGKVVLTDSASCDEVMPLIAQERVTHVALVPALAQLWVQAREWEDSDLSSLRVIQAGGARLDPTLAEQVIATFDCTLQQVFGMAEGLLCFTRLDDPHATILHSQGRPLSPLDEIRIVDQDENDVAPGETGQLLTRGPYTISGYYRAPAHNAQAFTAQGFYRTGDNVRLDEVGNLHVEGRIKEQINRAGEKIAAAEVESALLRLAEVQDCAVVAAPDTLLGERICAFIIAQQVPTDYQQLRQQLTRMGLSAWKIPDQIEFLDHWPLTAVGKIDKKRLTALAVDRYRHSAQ
As to the kind of experiment: Inhibition of Yersinia pestis YbtE assessed as incorporation of [3H]salicyl group to HMWP2 protein.

Data set [3] concerns Mycobacterium tuberculosis. As to the kind of experiment: Antimycobacterial activity against Mycobacterium tuberculosis H37Rv in presence of iron rich GAST-D medium. The data set is classed as functional, organism-based.
For data set [4], the system named is Yersinia pestis. As to the kind of experiment: Antimicrobial activity against Yersinia pestis KIM6-2082.1+ in presence of iron limiting PMH-D medium. The data set is classed as functional, organism-based.
For data set [5], the system named is Mycobacterium tuberculosis. The experiment in a line: Antimycobacterial activity against Mycobacterium tuberculosis H37Rv in presence of iron deficient GAST-D medium. The data set is classed as functional, organism-based.
The test system of data set [6] is Yersinia pestis. The experiment in a line: Antimicrobial activity against Yersinia pestis KIM6-2082.1+ in presence of iron rich PMH-D medium. It is filed as functional, organism-based.
A short description of data set [7]: Cytotoxicity against human HeLa cells after 24 hrs. The data set is classed as cell-based. The conditions noted are these: read-out: CD50.

Consider `COc1cc([C@@H]2CC(c3ccccc3O)=NN2C(=S)Nc2ccccc2)ccc1O`, for which, in the data set with Yersinia pestis [1], the Ratio is listed as >30. Further, the IC50 is 0.2 µM in data set [2]; ≥ 500 µM in data set [3]; 2 µM in the data set with Yersinia pestis [4]; ≥ 500 µM in data set [5]; > 150 µM in the data set with Yersinia pestis [6]. For the same compound, the MIC90 in data set [3] was ≥ 500 µM; in the data set with Yersinia pestis [4] it was 5 µM; in data set [5] it was ≥ 500 µM; with Yersinia pestis [6], > 150 µM. Also, the CC50 at 24 h in data set [7] was found to be 13 µM.
With `Cc1ccc(NC(=S)N2N=C(c3ccccc3O)C[C@H]2c2ccc(O)cc2)cc1`, the Ratio in the data set on Yersinia pestis [1] is >3. The IC50 is 0.4 µM in data set [2]; ≥ 500 µM in data set [3]; 0.9 µM with Yersinia pestis [4]; ≥ 500 µM in data set [5]; > 9 µM in the data set with Yersinia pestis [6]. The MIC90 in data set [3] was ≥ 500 µM; with Yersinia pestis [4] it was 3 µM; in data set [5] it was ≥ 500 µM; in the data set on Yersinia pestis [6], > 9 µM. Moreover, in data set [7], the CC50 at 24 h came out at 3 µM.
Turning to `Oc1ccccc1C1=NN(C(=S)Nc2ccccc2)[C@H](c2ccc(Cl)cc2)C1`, in the data set with Yersinia pestis [1], the Ratio is reported as >5. The IC50 in data set [2] is 0.7 µM; in data set [3], ≥ 500 µM; in the data set with Yersinia pestis [4], 0.5 µM; in data set [5], ≥ 500 µM; in the data set with Yersinia pestis [6] it was > 5 µM. Also, the MIC90 in data set [3] was ≥ 500 µM; in the data set with Yersinia pestis [4], 1 µM; in data set [5], ≥ 500 µM; with Yersinia pestis [6] it was > 5 µM. Also, the CC50 at 24 h in data set [7] is 5 µM.
Take `COc1ccc(NC(=S)N2N=C(c3ccc(O)cc3O)C[C@H]2c2ccc(O)c(OC)c2)cc1`: the Ratio in the data set with Yersinia pestis [1] was >9. The IC50 in data set [2] was 1 µM; in data set [3] it was 167 µM; with Yersinia pestis [4], 0.2 µM; in data set [5] it was 125 µM; in the data set on Yersinia pestis [6] it was > 9 µM. Moreover, the MIC90 was > 250 µM in data set [3], 1 µM with Yersinia pestis [4], > 250 µM in data set [5] and > 9 µM in the data set on Yersinia pestis [6]. Moreover, the CC50 at 24 h in data set [7] came to 31 µM.
Turning to `Oc1ccccc1C1=NN(C(=S)Nc2ccccc2)[C@H](c2ccccc2)C1`, the half-maximal inhibitory concentration (IC50) is 0.5 µM in data set [2]; ≥ 500 µM in data set [3]; > 9 µM in the data set with Yersinia pestis [4]; ≥ 500 µM in data set [5]; > 9 µM in the data set on Yersinia pestis [6]. For the same compound, the MIC90 was ≥ 500 µM in data set [3], > 9 µM in the data set on Yersinia pestis [4], ≥ 500 µM in data set [5] and > 9 µM in the data set with Yersinia pestis [6]. For the same compound, in data set [7], the CC50 at 24 h stood at 3 µM.
Take `Oc1ccc([C@@H]2CC(c3ccc(O)cc3O)=NN2C(=S)Nc2ccccc2)cc1`: the Ratio with Yersinia pestis [1] is >75. Further, the IC50 was 1 µM in data set [2]; > 250 µM in data set [3]; 1 µM with Yersinia pestis [4]; 167 µM in data set [5]; > 150 µM with Yersinia pestis [6]. Besides, the MIC90 was > 250 µM in data set [3], 2 µM with Yersinia pestis [4], > 250 µM in data set [5] and > 150 µM in the data set on Yersinia pestis [6]. The CC50 at 24 h in data set [7] was 63 µM.
Turning to `Oc1ccccc1C1=NN(C(=S)Nc2ccccc2)[C@H](c2cccs2)C1`, the concentration for half-maximal inhibition (IC50) in data set [2] came out at 2 µM.
On to `COc1ccc([C@@H]2CC(c3ccccc3O)=NN2C(=S)Nc2ccccc2)cc1`, for which the IC50 in data set [2] was 1 µM; in data set [3], ≥ 500 µM; in the data set on Yersinia pestis [4], 0.7 µM; in data set [5] it was ≥ 500 µM; in the data set with Yersinia pestis [6], > 19 µM. Moreover, the MIC90 was ≥ 500 µM in data set [3], > 19 µM with Yersinia pestis [4], ≥ 500 µM in data set [5] and > 19 µM in the data set on Yersinia pestis [6]. In addition, in data set [7], the CC50 at 24 h came to 5 µM.
With `Nc1ncnc2c1ncn2[C@@H]1O[C@H](COS(=O)(=O)NC(=O)c2ccccc2O)[C@@H](O)[C@H]1O`, the IC50 in data set [2] came out at 0.007 µM.
With `COc1ccc(NC(=S)N2N=C(c3ccccc3O)C[C@H]2c2ccc(O)c(OC)c2)cc1`, in the data set on Yersinia pestis [1], the Ratio was >75. In addition, the IC50 is 0.5 µM in data set [2]; ≥ 500 µM in data set [3]; 0.6 µM with Yersinia pestis [4]; ≥ 500 µM in data set [5]; > 150 µM in the data set on Yersinia pestis [6]. Besides, the MIC90 in data set [3] was ≥ 500 µM; in the data set on Yersinia pestis [4], 2 µM; in data set [5] it was ≥ 500 µM; with Yersinia pestis [6], > 150 µM. The CC50 at 24 h in data set [7] was 25 µM.
In the case of `COc1ccccc1NC(=S)N1N=C(c2ccccc2O)C[C@H]1c1ccccc1O`, in the data set with Yersinia pestis [1], the Ratio is on record as >1. Besides, the IC50 is 0.8 µM in data set [2]; ≥ 500 µM in data set [3]; 2 µM with Yersinia pestis [4]; ≥ 500 µM in data set [5]; > 5 µM in the data set with Yersinia pestis [6]. Moreover, the MIC90 is ≥ 500 µM in data set [3], 5 µM in the data set on Yersinia pestis [4], ≥ 500 µM in data set [5] and > 5 µM with Yersinia pestis [6]. Besides, the CC50 at 24 h in data set [7] is 15 µM.
`Oc1ccc([C@@H]2CC(c3ccccc3)=NN2C(=S)Nc2ccccc2)cc1`: the half-maximal inhibitory concentration (IC50) in data set [2] is > 12.5 µM; in data set [3], ≥ 500 µM; with Yersinia pestis [4] it was > 38 µM; in data set [5], ≥ 500 µM; in the data set with Yersinia pestis [6], > 38 µM. Also, the MIC90 in data set [3] is ≥ 500 µM; in the data set with Yersinia pestis [4], > 38 µM; in data set [5] it was ≥ 500 µM; in the data set on Yersinia pestis [6] it was > 38 µM. Moreover, the CC50 at 24 h in data set [7] was 29 µM.
As for `COc1cc([C@@H]2CC(c3ccccc3O)=NN2C(=S)Nc2ccccc2OC)ccc1O`, the Ratio in the data set with Yersinia pestis [1] is on record as >2. The IC50 in data set [2] is 0.8 µM; in data set [3], ≥ 500 µM; with Yersinia pestis [4], 1 µM; in data set [5] it was ≥ 500 µM; in the data set on Yersinia pestis [6], > 9 µM. Moreover, the MIC90 in data set [3] is ≥ 500 µM; with Yersinia pestis [4], 6 µM; in data set [5] it was ≥ 500 µM; in the data set with Yersinia pestis [6], > 9 µM. Further, in data set [7], the CC50 at 24 h was 11 µM.
As for `Oc1ccccc1C1=NN(C(=S)Nc2ccccc2)[C@H](c2ccccc2Cl)C1`, the IC50 in data set [2] was 2 µM; in data set [3], ≥ 500 µM; with Yersinia pestis [4] it was > 5 µM; in data set [5], ≥ 500 µM; in the data set with Yersinia pestis [6] it was > 5 µM. The MIC90 in data set [3] is ≥ 500 µM; in the data set on Yersinia pestis [4], > 5 µM; in data set [5] it was ≥ 500 µM; in the data set on Yersinia pestis [6], > 5 µM. In data set [7], the CC50 at 24 h was 5 µM.
Turning to `COc1ccccc1[C@@H]1CC(c2ccccc2O)=NN1C(=S)Nc1ccccc1`, the IC50 in data set [2] was 3 µM; in data set [3] it was > 250 µM; with Yersinia pestis [4], 0.4 µM; in data set [5] it was > 250 µM; in the data set on Yersinia pestis [6], > 5 µM. Further, the MIC90 in data set [3] was > 250 µM; with Yersinia pestis [4], > 5 µM; in data set [5] it was > 250 µM; in the data set on Yersinia pestis [6], > 5 µM. For the same compound, the CC50 at 24 h in data set [7] was found to be 6 µM.
On to `COc1cc([C@@H]2CC(c3ccccc3O)=NN2C(=S)Nc2ccc(C)cc2)ccc1O`, for which the Ratio in the data set on Yersinia pestis [1] is >10. For the same compound, the IC50 in data set [2] was 0.5 µM; in data set [3], ≥ 500 µM; in the data set with Yersinia pestis [4], 1 µM; in data set [5], ≥ 500 µM; with Yersinia pestis [6] it was > 19 µM. Also, the MIC90 was ≥ 500 µM in data set [3], 2 µM in the data set with Yersinia pestis [4], ≥ 500 µM in data set [5] and > 19 µM with Yersinia pestis [6]. Besides, the CC50 at 24 h in data set [7] worked out at 16 µM.
On to `COc1ccc(NC(=S)N2N=C(c3ccccc3O)C[C@H]2c2ccc(O)cc2)cc1`, for which the Ratio in the data set on Yersinia pestis [1] is listed as >10. Also, the IC50 is 7 µM in data set [2]; ≥ 500 µM in data set [3]; 0.7 µM in the data set on Yersinia pestis [4]; ≥ 500 µM in data set [5]; > 19 µM with Yersinia pestis [6]. The MIC90 in data set [3] is ≥ 500 µM; in the data set on Yersinia pestis [4], 2 µM; in data set [5], ≥ 500 µM; with Yersinia pestis [6], > 19 µM. Moreover, in data set [7], the CC50 at 24 h came out at 4 µM.
Turning to `COc1ccccc1NC(=S)N1N=C(c2ccccc2O)C[C@H]1c1ccc(O)cc1`, the Ratio with Yersinia pestis [1] is >3. Moreover, the IC50 in data set [2] is 0.3 µM; in data set [3], ≥ 500 µM; in the data set on Yersinia pestis [4], 2 µM; in data set [5], ≥ 500 µM; in the data set on Yersinia pestis [6], > 19 µM. Further, the MIC90 in data set [3] is ≥ 500 µM; in the data set with Yersinia pestis [4], 6 µM; in data set [5], ≥ 500 µM; with Yersinia pestis [6], > 19 µM. Further, the CC50 at 24 h in data set [7] stood at 1 µM.
For `CN[C@@H]1[C@H](O[C@H]2[C@H](O[C@H]3[C@H](O)[C@@H](O)[C@H](N=C(N)N)[C@@H](O)[C@@H]3N=C(N)N)O[C@@H](C)[C@]2(O)C=O)O[C@@H](CO)[C@H](O)[C@H]1O` (stereo in doubt) [STREPTOMYCIN], in the data set on Yersinia pestis [1], the Ratio came to 1. Besides, the MIC90 in the data set with Yersinia pestis [4] and in the data set on Yersinia pestis [6] was 0.2 µM each time. Further, the CC50 at 24 h in data set [7] is > 500 µM.
On to `C[C@@H]1C[C@@H]([C@H](O)CC2CC(=O)NC(=O)C2)C(=O)[C@@H](C)C1` [CYCLOHEXIMIDE], for which the CC50 at 24 h in data set [7] was 0.1 µM.

By IC50 is commonly meant the concentration that gives 50% inhibition. As a reminder, the MIC90 is the lowest concentration that inhibits either 90% of growth or 90% of the strains tested, depending on the study.
